Reference: paper PMC4490394 (Scientific Reports, 2015)
Where a chain is given by its changes, count along the chain named. Values joined by “and” are separate entries in the source; they are usually repeats but may differ in a detail not shown here. Identical values can stand only once. Like-named read-outs stand apart in the source and are kept apart here.

Assays:
[1] = system: VCaP cells; assay: VCaP proliferation assay (WST-1); type: cell-based; details: Homo sapiens, 96 h
[2] = Brain penetrance, brain/plasma ratio from AUC0-24; type: in vivo; details: male, BALB/c or Balb/cOlaHsd nude, mouse, mice, single oral dose of 10 mg/kg, based on AUC0–24
[3] = system: subcutaneous VCaP tumors; assay: Castration-resistant VCaP xenograft, tumor volume; type: in vivo, castrated nude mice
[4] = Pharmacokinetic parameters in mice after 7 days oral dosing; type: in vivo; details: male, BALB/c or Balb/cOlaHsd nude, mouse, plasma, 20 mg/kg qd oral, read-out: AUC24
Protocol: Control mice received vehicle. […] Brain samples (without olfactory bulbs and medulla oblongata) from each group and time point were pooled and homogenized before the analysis. […] Plasma and brain concentration vs. time were evaluated by noncompartmental analysis using WinNonlin® Professional v. 5.2 software (Pharsight Corporation). Brain/plasma ratios were calculated based on AUC0–24 values for plasma and brain.

[5] = system: serum testosterone; assay: Serum testosterone in intact nude mice bearing orthotopic VCaP tumors; type: in vivo; details: 20 mg/kg qd oral, 3 weeks, p < 0.05 vs vehicle
Protocol: One million VCaP cells in 20 μL of RPMI-1640 medium were orthotopically injected into the dorsal prostate lobes of athymic nude male mice (7 weeks old from Harlan Winkelman, France). Tumor growth was followed by measuring serum PSA (ProStatus™ PSA EQM Kits, Wallac, Finland). […] At autopsy, blood samples were collected by heart puncture, clotted overnight at +4 °C, and centrifuged. For serum testosterone determination, 25-μL aliquots were extracted twice with 2 mL of diethyl ether and evaporated under nitrogen to dryness. The residues were reconstituted in PBS and measured using a standard radioimmunoassay as described previously.

[6] = Body weight of mice bearing subcutaneous VCaP xenograft tumors; type: in vivo, castrated nude mice; details: enzalutamide 20 mg/kg qd oral, individual animals, vs BW before treatment
Protocol: BALB/c nude male mice (7 weeks old from Charles River, Germany) were subcutaneously injected with 2 million VCaP cells in 100 μL of RPMI-1640 medium and Matrigel (BD) (1:1). Tumor growth was monitored twice weekly by caliper measurements. The volume of the tumor was calculated according to the formula W^2 × L/2 (mm^3), where W is the shorter and L the longer diameter of the tumor. When the average tumor volume reached ~200 mm^3, mice were castrated or SHAM-operated under Avertin anesthesia. […] For all in vivo studies, Macrocol® (Merck) + propylene glycol +5% glucose (50:30:20, v/v/v) was used as a vehicle.

[7] = target: T1, AR(F876L) (Homo sapiens, UniProt P10275, F877L)
T1 sequence (P10275 1-920 F877L): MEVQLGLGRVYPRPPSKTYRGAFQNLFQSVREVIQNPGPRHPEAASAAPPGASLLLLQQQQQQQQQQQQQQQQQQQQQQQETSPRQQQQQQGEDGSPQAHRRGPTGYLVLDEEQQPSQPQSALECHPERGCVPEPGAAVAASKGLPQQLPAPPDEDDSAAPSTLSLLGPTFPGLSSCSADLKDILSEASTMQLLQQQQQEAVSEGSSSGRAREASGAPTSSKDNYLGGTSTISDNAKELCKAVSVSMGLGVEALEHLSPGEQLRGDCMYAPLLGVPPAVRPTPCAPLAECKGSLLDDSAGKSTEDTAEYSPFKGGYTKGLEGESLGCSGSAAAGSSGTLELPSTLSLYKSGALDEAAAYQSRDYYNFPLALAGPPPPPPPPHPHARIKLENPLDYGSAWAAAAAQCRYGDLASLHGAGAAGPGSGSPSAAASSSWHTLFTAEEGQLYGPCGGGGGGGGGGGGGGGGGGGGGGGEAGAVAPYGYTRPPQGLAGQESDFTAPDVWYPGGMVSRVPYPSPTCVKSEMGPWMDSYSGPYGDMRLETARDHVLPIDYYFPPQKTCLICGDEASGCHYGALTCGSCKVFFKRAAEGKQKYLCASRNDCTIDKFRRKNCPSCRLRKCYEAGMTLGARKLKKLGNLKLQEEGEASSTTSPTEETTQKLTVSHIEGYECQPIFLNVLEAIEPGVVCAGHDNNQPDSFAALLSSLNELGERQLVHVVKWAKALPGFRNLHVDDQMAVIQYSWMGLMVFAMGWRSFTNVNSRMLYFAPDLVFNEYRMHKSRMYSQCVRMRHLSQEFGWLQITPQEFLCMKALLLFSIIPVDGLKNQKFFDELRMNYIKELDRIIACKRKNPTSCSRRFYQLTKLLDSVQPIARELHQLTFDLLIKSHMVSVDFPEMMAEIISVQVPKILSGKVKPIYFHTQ

[8] = target: T2, AR(W741L) (Homo sapiens, UniProt P10275, W742L)
T2 sequence (P10275 1-920 W742L): T1 sequence (P10275 1-920 F877L) with W742L, L877F

[9] = target: T3, AR(T877A) (Homo sapiens, UniProt P10275, T878A)
T3 sequence (P10275 1-920 T878A): T1 sequence (P10275 1-920 F877L) with L877F, T878A

[10] = system: AR nuclear translocation in HS-HEK293 cells; details: 0.3 or 1.0 μM test compound with 0.3 nM testosterone, HS-HEK293 cells
[11] = parameters: method as in PMID 15470213; details: CRPC ref 7; cited from earlier work

For `CNC(=O)c1ccc(N2C(=S)N(c3cnc(C#N)c(C(F)(F)F)c3)C(=O)C23CCC3)cc1F` [ARN-509, reference compound], the IC50 ([1]; read-out: IC50, androgen-induced VCaP cell proliferation) was 420 nM and the Kp [2] was 0.62.
With `CNC(=O)c1ccc(N2C(=S)N(c3ccc(C#N)c(C(F)(F)F)c3)C(=O)C2(C)C)cc1F` [Enzalutamide, enzalutamide, reference compound] the “antitumor activity (tumor volume)” value ([3]; 20 mg/kg oral once daily, 37 days, p < 0.05 vs castrated untreated mice) was “inhibition of tumor growth”, the AUC [4] was 479 µg·h/mL and the “effect on serum testosterone levels” value [5] was “increased significantly”. For the same molecule, the “Change in body weight (%) d 3” value [6] was 0.0% (2×) and -6.2% and -2.7% and -0.6% and -0.5% and -2.0% and 1.3% and 0.5%, the “Change in body weight (%) d 9” value [6] was 0.4% and 1.7% (2×) and 3.6% and 0.6% and 1.3% and 2.9% and 1.5% and 0.5% and the “Change in body weight (%) d 16” value [6] was 1.8% (2×) and 1.2% and 3.0% and 2.6% and 6.8% and 5.6% and 5.5% and 8.7%. The “Change in body weight (%) d 23” value [6] was 1.0% and -4.8% and -1.4% and 1.8% and -2.2% and -0.9% and -2.9% and -3.0%, the “Change in body weight (%) d 30” value [6] was 2.1% and -4.0% and -2.7% and 3.0% and 0.9% and 1.9% and -2.0% and -0.9% and the “Change in body weight (%) d 37” value [6] was 5.1% and -0.9% and 0.5% (2×) and 3.6% and 3.5% and 7.2% and 1.3%.
For `CC(=O)c1cc(C(=O)N[C@@H](C)Cn2ccc(-c3ccc(C#N)c(Cl)c3)n2)n[nH]1` [ORM-15341], the IC50 ([1]; 0.1 nM mibolerone, steroid-depleted medium, 4 days, WST-1, read-out: IC50, androgen-induced VCaP cell proliferation) was 170 nM, the “functional activity (agonist/antagonist) on AR(F876L)” value [7] was “full antagonists” and the “functional activity (agonist/antagonist) on AR(W741L)” value [8] was “full antagonists”. The “functional activity (agonist/antagonist) on AR(T877A)” value [9] was “full antagonists” and the “effect on testosterone-induced nuclear translocation of AR” value [10] was “inhibit”.
With `CC(O)(CS(=O)(=O)c1ccc(F)cc1)C(=O)Nc1ccc(C#N)c(C(F)(F)F)c1` (stereo not shown) [bicalutamide, reference compound] the antitumor activity ([3]; 20 mg/kg per os, data not shown) was “does not have any antitumor activity” and the “effect on testosterone-induced nuclear translocation of AR” value [10] was “failed to block”.
In the case of `CC(=O)O[C@@]12CO[C@@H]1C[C@H](O)[C@@]1(C)C(=O)[C@H](O)C3=C(C)[C@@H](OC(=O)[C@H](O)[C@@H](NC(=O)OC(C)(C)C)c4ccccc4)C[C@@](O)([C@@H](OC(=O)c4ccccc4)[C@H]21)C3(C)C` [docetaxel], the “median prolongation of survival” value [11] is given as 2.9 months.
